For one experiment, the target named is T1, hA2B receptors (Homo sapiens, UniProt P29275).
T1 construct: purchased Receptor Biology, Inc. (USA); host or cells: HEK293
T1 sequence (P29275 1-332): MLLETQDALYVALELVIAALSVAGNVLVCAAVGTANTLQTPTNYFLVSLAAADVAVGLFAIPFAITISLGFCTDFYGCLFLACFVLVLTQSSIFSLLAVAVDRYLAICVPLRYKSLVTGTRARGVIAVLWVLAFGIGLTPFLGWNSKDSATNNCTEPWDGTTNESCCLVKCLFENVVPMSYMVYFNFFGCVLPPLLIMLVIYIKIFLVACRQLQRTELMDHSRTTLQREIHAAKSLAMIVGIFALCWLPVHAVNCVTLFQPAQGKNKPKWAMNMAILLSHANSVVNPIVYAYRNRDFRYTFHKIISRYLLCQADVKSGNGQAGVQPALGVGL
In words: Adenosine 2B receptor subtype competition radioligand binding. The following applies: membranes from hA2B receptors transfected to HEK293 cells, [3H]DPCPX as radioligand, 30 min at 25° C.; read-out: IC50 A2B. As to the method: Adenosine 2B Receptor Subtype Competition Radioligand Binding
Human membranes from recombinant A2B receptors were purchased from Receptor Biology, Inc.(USA).
Competition assays were carried out by incubation of membranes from hA2B receptors transfected to HEK293 cells, [^3H]DPCPX as radioligand, buffer (50 mM Tris-HCl (pH 6.5), 10 mM MgCl2, 1 mM EDTA, 0.1 mM benzamidine, 2 units/ml adenosine deaminase), and unlabelled ligand in a total volume of 0.1 ml for 30 min at 25° C. NECA was used to determinate non-specific binding. Filter over Schleicher&Schuell GF/52 filters (pre-soaked 0.5% polyethylenyimine) in a Brandel cell harvester. Unbound radioligand was removed with 4×2 ml ice-cold 50 mM Tris-Hcl (pH 6.5).

The next experiment deals with T2, hA2A receptors (Homo sapiens, UniProt P29274).
T2 construct: purchased Receptor Biology, Inc. (USA); host or cells: HEK293
In words: Adenosine 2A receptor subtype competition radioligand binding. The following applies: membranes from hA2A receptors transfected to HEK293 cells, [3H]ZM241385 as radioligand, 90 min at 25° C.; read-out: IC50 A2A. As to the method:
Adenosine 2A Receptor Subtype Competition Radioligand Binding
Human membranes from recombinant A2A receptors were purchased from Receptor Biology, Inc. (USA).
Competition assays were carried out by incubation of membranes from hA2A receptors transfected to HEK293 cells, [^3H]ZM241385 as radioligand, buffer (50 mM Tris-HCl (pH 7.4), 10 mM MgCl2, 1 mM EDTA, 2 units/ml adenosine deaminase), and unlabelled ligand in a total volume of 0.2 ml for 90 min at 25° C. NECA was used to determinate non-specific binding. Filter over Schleicher&Schuell GF/52 filters (pre-soaked 0.5% polyethylenyimine) in a Brandel cell harvester. Unbound radioligand was removed with 3×3 ml ice-cold 50 mM Tris-Hcl 50 (pH 7.4), 0.9% NaCl.

For 15 molecules, IC50 results are on record in patent publication US7504398B2, “Substituted-4-(pyrrolo pyrimidin-6-yl)benzenesulphonamide derivatives” (Laboratorios Almirall S.A., priority 2002, dated 2009).

T2 sequence (P29274 whole entry): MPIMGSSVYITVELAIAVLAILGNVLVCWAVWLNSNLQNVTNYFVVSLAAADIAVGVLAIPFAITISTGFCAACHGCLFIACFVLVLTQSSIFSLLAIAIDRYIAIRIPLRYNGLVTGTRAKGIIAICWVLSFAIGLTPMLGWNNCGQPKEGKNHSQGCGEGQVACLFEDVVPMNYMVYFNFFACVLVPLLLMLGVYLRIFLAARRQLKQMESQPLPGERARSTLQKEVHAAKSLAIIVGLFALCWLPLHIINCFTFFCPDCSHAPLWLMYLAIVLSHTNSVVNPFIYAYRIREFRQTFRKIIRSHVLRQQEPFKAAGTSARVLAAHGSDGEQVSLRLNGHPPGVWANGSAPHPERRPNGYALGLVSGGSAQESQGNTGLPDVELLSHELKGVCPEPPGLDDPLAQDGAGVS

With `Cn1c(=O)c2[nH]c(-c3ccc(S(=O)(=O)N4CCN(Cc5ccccc5)CC4)cc3)cc2n(C)c1=O` [Example 1, 6-[4-(4-Benzylpiperazine-1-sulphonyl)phenyl]-1,3-dimethyl-1,5-dihydropyrrolo[3,2-d]pyrimidine-2,4-dione], the half-inhibitory concentration (IC50) – broadly, the concentration that gives 50% inhibition – at hA2B receptors was determined as 16 nM.

`Cn1c(=O)c2[nH]c(-c3ccc(S(=O)(=O)N4CCN(Cc5cccc(F)c5)CC4)cc3)cc2n(C)c1=O` [Example 3, 6-{4-[4-(3-Fluorobenzyl)piperazine-1-sulphonyl]phenyl}-1,3-dimethyl-1,5-dihydropyrrolo[3,2-d]pyrimidine-2,4-dione]: the IC50 at hA2B receptors turned out to be 7 nM.

As to `Cn1c(=O)c2[nH]c(-c3ccc(S(=O)(=O)N4CCN(Cc5ccc(Cl)s5)CC4)cc3)cc2n(C)c1=O` [Example 18, 6-{4-[4-(5-Chlorothiophen-2-ylmethyl)piperazine-1-sulphonyl]phenyl}-1,3-dimethyl-1,5-dihydropyrrolo[3,2-d]pyrimidine-2,4-dione], the IC50 on hA2A receptors was determined as 85 nM; on hA2B receptors, 4 nM.

Turning to `COc1ccc(NS(=O)(=O)c2ccc(-c3cc4c([nH]3)c(=O)n(C)c(=O)n4C)cc2)cn1` [Example 36, 4-(1,3-Dimethyl-2,4dioxo-2,3,4,5-tetrahydro-1H-pyrrolo[3,2-d]pyrimidin-6-yl)-N-(6-methoxypyridin-3-yl)benzenesulphonamide], the IC50 on hA2B receptors was found to be 18 nM.

For the molecule `Cn1c(=O)c2[nH]c(-c3ccc(S(=O)(=O)NCCc4ccccn4)cc3)cc2n(C)c1=O` [Example 37, 4-(1,3-Dimethyl-2,4-dioxo-2,3,4,5-tetrahydro-1H-pyrrolo[3,2-d]pyrimidin-6-yl)-N-(2-pyridin-2-ylethyl)benzenesulphonamide], on hA2B receptors, the IC50 is 14 nM.

`Cn1c(=O)c2[nH]c(-c3ccc(S(=O)(=O)Nc4ccccn4)cc3)cc2n(C)c1=O` [Example 38, 4-(1,3-Dimethyl-2,4-dioxo-2,3,4,5-tetrahydro-1H-pyrrolo[3,2-d]pyrimidin-6-yl)-N-pyridin-2-ylbenzenesulphonamide]: the IC50 was determined as 75 nM on hA2A receptors and 12 nM on hA2B receptors.

As to `CCn1c(=O)c2[nH]c(-c3ccc(S(=O)(=O)N4CCN(Cc5ccc(Cl)s5)CC4)cc3)cc2n(CC)c1=O` [Example 59, 6-{4-[4-(5-Chlorothiophen-2-ylmethyl)piparazine-1-sulphonyl]phenyl}-1,3-diethyl-1,5-dihydropyrrolo[3,2-d]pyrimidine-2,4dione], at hA2A receptors, the IC50 is 28 nM.

As to `CCn1c(=O)c2[nH]c(-c3ccc(S(=O)(=O)NC4CCN(Cc5ccc(F)cc5)CC4)cc3)cc2n(CC)c1=O` [Example 69, 4-(1,3-Diethyl-2,4-dioxo-2,3,4,5-tetrahydro-1H-pyrrolo[3,2-d]pyrimidin-6-yl)-N-[1-(4-fluorobenzyl)piperidin-4yl]benzenesulphonamide], the IC50 at hA2A receptors stood at 84 nM.

On to `CCCn1c(=O)c2[nH]c(-c3ccc(S(=O)(=O)NC4CCN(Cc5ccccc5)CC4)cc3)cc2n(CCC)c1=O` [Example 97, N-(1-Benzylperidin-4-yl)-4-(2,4-dioxo-1,3-dipropyl-2,3,4,5-tetrahydro-1H-pyrrolo[3,2-d]pyrimidin-6-yl)benzenesulphonamide], for which the IC50 on hA2A receptors came to 60 nM.

As to `CCCn1c(=O)c2[nH]c(-c3ccc(S(=O)(=O)N4CCN(Cc5ccc(F)cc5)CC4)cc3)cc2n(C)c1=O` [Example 107, 6-{4-[4-(4-Fluorobenzyl)piperazine-1-sulphonyl]phenyl}-1-methyl-3-propyl-1,5-dihydropyrrolo[3,2-d]pyrimidine-2,4-dione], the IC50 at hA2B receptors came out at 9 nM.

Take `CCCn1c(=O)c2[nH]c(-c3ccc(S(=O)(=O)N4CCN(Cc5ccc6c(c5)OCO6)CC4)cc3)cc2n(C)c1=O` [Example 118, 6[4-(4-Benzol[1,3]dioxol-5-ylmethylpiperazine-1-sulphonyl)phenyl]-1-methyl-3-propyl-1,5-dihydropyrrolo[3,2-d]pyrimidine-2,4-dione]: at hA2B receptors, the IC50 was found to be 6 nM.

As for `CCCn1c(=O)c2[nH]c(-c3ccc(S(=O)(=O)N4CCN(c5ccccn5)CC4)cc3)cc2n(C)c1=O` [Example 126, 1-Methyl-3-propyl-6-[4-(4-pyridin-2-yipiperazine-1-sulphonyl)phenyl]-1,5-dihydropyrrolo[3,2-d]pyrimidin-2,4-dione], the IC50 on hA2B receptors is 12 nM.

In the case of `CCCn1c(=O)c2[nH]c(-c3ccc(S(=O)(=O)NCCc4ccccn4)cc3)cc2n(C)c1=O` [Example 132, 4-(1-Methyl-2,4-dioxo-3-propyl-2,3,4,5-tetrahydro-1H-pyrrolo[3,2-d]pyrimidin-6-yl)-N-(2-pyridin-2-ylethyl)benzenesulphonamide], the IC50 at hA2B receptors was found to be 17 nM.

With `Cn1c(=O)c2[nH]c(-c3ccc(S(=O)(=O)NCCOc4ccccn4)cc3)cc2n(C)c1=O` [Example 172, 4-(1,3-Dimethyl-2,4-dioxo-2,3,4,5-tetrahydro-1H-pyrrolo[3,2-d]pyrimidin-6-yl)-N-[2-(pyridin-2-yloxy)ethyl]benzenesulfonamide], the IC50 on hA2B receptors worked out at 17 nM.

Regarding `COc1cccc(OCCNS(=O)(=O)c2ccc(-c3cc4c([nH]3)c(=O)n(C)c(=O)n4C)cc2)n1` [Example 173, 4-(1,3-Dimethyl-2,4-dioxo-2,3,4,5-tetrahydro-1H-pyrrolo[3,2-d]pyrimidin-6-yl)-N-[2-(6-methoxypyridin-2-yloxy)ethyl]benzenesulfonamide], on hA2B receptors, the IC50 worked out at 5 nM.
